Measurements taken from publication PMC10819888, “Benzimidazole-Based Derivatives as Apoptotic Antiproliferative Agents: Design, Synthesis, Docking, and Mechanistic Studies” (Molecules, 2024).

Tests used:
Assay in all cases: NCI-60 one-dose assay
Type in all cases: cell-based
DU-145 = settings: Homo sapiens, DU-145 (Prostate Cancer), read-out: Cell Inhibition Percent
COLO 205 = settings: Homo sapiens, COLO 205 (Colon Cancer), read-out: Cell Inhibition Percent
M14 = settings: Homo sapiens, M14 (Melanoma), read-out: Cell Inhibition Percent
CCRF-CEM = settings: Homo sapiens, CCRF-CEM (Leukemia), read-out: Cell Inhibition Percent
K-562 = settings: Homo sapiens, K562, K-562 (Leukemia), read-out: Cell Inhibition Percent
TK-10 = settings: Homo sapiens, TK-10 (Renal Cancer), read-out: Cell Inhibition Percent
SR = settings: Homo sapiens, SR (Leukemia), read-out: Cell Inhibition Percent
SW-620 = settings: Homo sapiens, SW-620 (Colon Cancer), read-out: Cell Inhibition Percent
A549/ATCC = settings: Homo sapiens, A549/ATCC (Non-Small Cell Lung Cancer), read-out: Cell Inhibition Percent
T-47D = settings: Homo sapiens, T47D, T-47D (Breast Cancer), read-out: Cell Inhibition Percent
MALME-3M = settings: Homo sapiens, MALME-3M (Melanoma), read-out: Cell Inhibition Percent
SK-OV-3 = settings: Homo sapiens, SK-OV-3 (ovarian cancer), read-out: Cell Inhibition Percent
NCI/ADR-RES = settings: Homo sapiens, NCI/ADR-RES (ovarian cancer), read-out: Cell Inhibition Percent
HCC-2998 = settings: Homo sapiens, HCC-2998 (Colon Cancer), read-out: Cell Inhibition Percent
RPMI-8226 = settings: Homo sapiens, RPMI-8226 (Leukemia), read-out: Cell Inhibition Percent
CAKI-1 = settings: Homo sapiens, CAKI-1 (Renal Cancer), read-out: Cell Inhibition Percent
SK-MEL-28 = settings: Homo sapiens, SK-MEL-28 (Melanoma), read-out: Cell Inhibition Percent
NCI-H460 = settings: Homo sapiens, NCI-H460 (Non-Small Cell Lung Cancer), read-out: Cell Inhibition Percent
SK-MEL-2 = settings: Homo sapiens, SK-MEL-2 (Melanoma), read-out: Cell Inhibition Percent
OVCAR-4 = settings: Homo sapiens, OVCAR-4 (ovarian cancer), read-out: Cell Inhibition Percent
SN12C = settings: Homo sapiens, SN12C (Renal Cancer), read-out: Cell Inhibition Percent
RXF 393 = settings: Homo sapiens, RXF 393 (Renal Cancer), read-out: Cell Inhibition Percent
NCI-H522 = settings: Homo sapiens, NCI-H522 (Non-Small Cell Lung Cancer), read-out: Cell Inhibition Percent
HT29 = settings: Homo sapiens, HT-29, HT29 (Colon Cancer), read-out: Cell Inhibition Percent
OVCAR-3 = settings: Homo sapiens, OVCAR-3 (ovarian cancer), read-out: Cell Inhibition Percent
BT-549 = settings: Homo sapiens, BT-549 (Breast Cancer), read-out: Cell Inhibition Percent
SNB-19 = settings: Homo sapiens, SNB-19 (CNS cancer), read-out: Cell Inhibition Percent
SF-295 = settings: Homo sapiens, SF-295 (CNS cancer), read-out: Cell Inhibition Percent
HS 578T = settings: Homo sapiens, HS 578T (Breast Cancer), read-out: Cell Inhibition Percent

SMILES	inhibition at 10 µM (DU-145)	inhibition at 10 µM (COLO 205)	inhibition at 10 µM (M14)	inhibition at 10 µM (CCRF-CEM)	inhibition at 10 µM (K-562)	inhibition at 10 µM (TK-10)	inhibition at 10 µM (SR)	inhibition at 10 µM (SW-620)	inhibition at 10 µM (A549/ATCC)	inhibition at 10 µM (T-47D)	inhibition at 10 µM (MALME-3M)	inhibition at 10 µM (SK-OV-3)	inhibition at 10 µM (NCI/ADR-RES)	inhibition at 10 µM (HCC-2998)	inhibition at 10 µM (RPMI-8226)	inhibition at 10 µM (CAKI-1)	inhibition at 10 µM (SK-MEL-28)	inhibition at 10 µM (NCI-H460)	inhibition at 10 µM (SK-MEL-2)	inhibition at 10 µM (OVCAR-4)	further results
COc1cc(/C=N/NC(=O)c2ccc3[nH]c(-c4ccc(Cl)cc4)nc3c2)cc(OC)c1OC [Compound 4h, N′-(3,4,5-Trimethoxybenzylidene)-2-(4-chlorophenyl)-1H-benzimidazole-5 carbohydrazide]	2.57%	54.3%	58%	63.4%	67.3%	22.6%	54.3%	21.3%	14.2%	84.1%	71.6%	12.2%	0%	20%	80.1%	24%	53.5%	17.2%	16.4%	0%	inhibition at 10 µM (SN12C): 31.5%; inhibition at 10 µM (RXF 393): 63.7%; inhibition at 10 µM (NCI-H522): 21.7%; inhibition at 10 µM (HT29): 60.1%; inhibition at 10 µM (OVCAR-3): 38.4%; inhibition at 10 µM (BT-549): 29.3%; inhibition at 10 µM (SNB-19): 29%; inhibition at 10 µM (SF-295): 56%; inhibition at 10 µM (HS 578T): 51.7%
O=C(N/N=C/c1ccc(O)cc1)c1ccc2[nH]c(-c3ccc(Cl)cc3)nc2c1 [Compound 4i, N′-(4-Hydroxybenzylidene)-2-(4-chlorophenyl)-1H-benzimidazole-5-carbohydrazide]	0%	0.44%	0.44%	13.6%	0.25%	0%	2.26%	0%	0%	24.2%	21.4%	5.09%	0%	0%	1.52%	1.91%	0%	0%	0%	0%	inhibition at 10 µM (SN12C): 0%; inhibition at 10 µM (RXF 393): 0%; inhibition at 10 µM (NCI-H522): 9.85%; inhibition at 10 µM (HT29): 0%; inhibition at 10 µM (OVCAR-3): 0%; inhibition at 10 µM (BT-549): 0%; inhibition at 10 µM (SNB-19): 0%; inhibition at 10 µM (SF-295): 0%; inhibition at 10 µM (HS 578T): 5.94%
CCn1c(-c2ccc3[nH]c(-c4ccc(Cl)cc4)nc3c2)n[nH]c1=S [Compound 6, 4-ethyl-5-(2-(4-chlorophenyl)-1H-benzimidazol-5-yl)-2,4-dihydro-3H-1,2,4triazole-3-thione]	0%	0%	0%	0%	1.43%	0%	17.5%	0%	0%	0.3%	2.41%	0%	0%	0%	0.68%	7.78%	0%	0%	0%	0.6%	inhibition at 10 µM (SN12C): 0%; inhibition at 10 µM (RXF 393): 13.9%; inhibition at 10 µM (NCI-H522): 1.85%; inhibition at 10 µM (HT29): 2.07%; inhibition at 10 µM (OVCAR-3): 0%; inhibition at 10 µM (BT-549): 7.91%; inhibition at 10 µM (SNB-19): 0%; inhibition at 10 µM (SF-295): 0.56%; inhibition at 10 µM (HS 578T): 1.05%
O=C(NN=Cc1ccc(F)cc1)c1ccc2[nH]c(-c3ccc(Cl)cc3)nc2c1 [Compound 4d, N′-(4-Fluorobenzylidene)-2-(4-chlorophenyl)-1H-benzimidazole-5-carbohydrazide]	14.6%	58.7%	39.8%	78.6%	61.2%	5.63%	79.3%	53.7%	82.2%	40.6%	88.2%	1.74%	23%	21%	32.5%	15.1%	28.1%	63.8%	16.7%	63.6%	inhibition at 10 µM (SN12C): 58.8%; inhibition at 10 µM (RXF 393): 22.6%; inhibition at 10 µM (NCI-H522): 3.87%; inhibition at 10 µM (HT29): 95.7%; inhibition at 10 µM (OVCAR-3): 29.3%; inhibition at 10 µM (BT-549): 0%; inhibition at 10 µM (SNB-19): 39.6%; inhibition at 10 µM (SF-295): 68.7%; inhibition at 10 µM (HS 578T): 30%
CCNC(=S)NNC(=O)c1ccc2[nH]c(-c3ccc(Cl)cc3)nc2c1 [Compound 5]	0%	0%	1.67%	86.9%	88.4%	0%	88.9%	0%	6.17%	18.4%	1.54%	0.37%	1.07%	5.54%	95.8%	17.1%	0%	1.06%	0%	5.13%	inhibition at 10 µM (SN12C): 10.1%; inhibition at 10 µM (RXF 393): 7.61%; inhibition at 10 µM (NCI-H522): 5.4%; inhibition at 10 µM (HT29): 2.33%; inhibition at 10 µM (OVCAR-3): 0%; inhibition at 10 µM (BT-549): 0%; inhibition at 10 µM (SNB-19): 2.37%; inhibition at 10 µM (HS 578T): 9.75%
O=C(NN=Cc1ccc(Cl)cc1Cl)c1ccc2[nH]c(-c3ccc(Cl)cc3)nc2c1 [Compound 4f, N′-(2,4-Dichlorobenzylidene)-2-(4-chlorophenyl)-1H-benzimidazole-5-carbohydrazide]	0%	0%	17.1%	48.1%	53.7%	0%	54.6%	4.3%	4.7%	12.3%	9.55%	7.23%	0%	3.25%	15.4%	9.61%	0%	1.37%	2.9%	0%	inhibition at 10 µM (SN12C): 1.23%; inhibition at 10 µM (RXF 393): 12.5%; inhibition at 10 µM (NCI-H522): 7.79%; inhibition at 10 µM (HT29): 2.18%; inhibition at 10 µM (OVCAR-3): 0%; inhibition at 10 µM (BT-549): 0%; inhibition at 10 µM (SNB-19): 7.76%; inhibition at 10 µM (SF-295): 1.19%; inhibition at 10 µM (HS 578T): 10.4%
